According to publication PMC5980259, “GI‐530159, a novel, selective, mechanosensitive two‐pore‐domain potassium (K2P) channel opener, reduces rat dorsal root ganglion neuron excitability” (British Journal of Pharmacology, 2017):

Tests used:
[1] = molecular target: T1, hTRAAK (Homo sapiens, UniProt Q9NYG8); assay: Whole-cell patch clamp, transiently transfected tsA-201 cells, TRAAK; assay type: cell-based; conditions: Supporting Information Figure S2
T1 construct: expressed in transfected cells; host or cells: tsA-201, transient, pcDNA3.1 vector
T1 sequence (Q9NYG8 1-393): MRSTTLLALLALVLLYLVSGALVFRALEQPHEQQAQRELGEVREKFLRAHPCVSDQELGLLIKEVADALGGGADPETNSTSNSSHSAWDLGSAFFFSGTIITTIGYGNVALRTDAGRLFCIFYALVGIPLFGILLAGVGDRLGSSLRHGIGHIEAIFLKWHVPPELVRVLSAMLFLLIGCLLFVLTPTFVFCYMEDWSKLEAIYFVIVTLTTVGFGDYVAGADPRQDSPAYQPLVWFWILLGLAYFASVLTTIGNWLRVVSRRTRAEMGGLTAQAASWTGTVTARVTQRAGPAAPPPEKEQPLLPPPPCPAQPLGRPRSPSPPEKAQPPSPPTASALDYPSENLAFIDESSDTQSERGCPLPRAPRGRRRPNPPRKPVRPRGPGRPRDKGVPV
Experimental: Recordings of hTREK1, hTREK1∆N, hTREK2, hTRAAK and […] currents from transiently transfected tsA‐201 cells were performed using methods as described in Veale and Mathie (2016). Briefly, the pcDNA3.1 vector was cloned with the gene of interest, and these vectors and a similar vector containing GFP were incorporated into the tsA201 cells (0.5 μg per well) using the calcium phosphate method. The cells were incubated for 6–12 h at 37°C in […] and 5% carbon dioxide. Cells were then washed using a PBS solution and used for experiments after 24 h.
Currents were recorded using whole‐cell patch‐clamp using an Axopatch 1D amplifier. Cells were placed in a recording chamber filled with an external medium composed of 145 mM, NaCl, 2.5 mM KCl, 3 mM MgCl2, 1 mM CaCl2 and 10 mM HEPES (pH to 7.4, using NaOH). The internal medium used in the glass pipette comprised 150 mM KCl, 3 mM MgCl2, 5 mM (or 0.1 mM) EGTA and 10 mM HEPES (pH to 7.4, using KOH). GI‐530159 was applied by bath perfusion. Currents were recorded and analysed using pCLAMP 10.2 software Microsoft Excel. The voltage protocol used for recording current through K2P channels was as previously described (Veale and Mathie, 2016). For analysis, we measured the current difference between the −80 and −40 mV steps.

[2] = molecular target: BK (KCa1.1) (Homo sapiens, UniProt Q12791); assay: BL-1249 selectivity (manual patch-clamp and flux assay platforms), BK; assay type: cell-based; conditions: 10 μM
[3] = molecular target: Kv7.2 (KCNQ2) (Homo sapiens, UniProt O43526); assay: BL-1249 selectivity (manual patch-clamp and flux assay platforms), Kv7.2; assay type: cell-based; conditions: 10 μM
[4] = molecular target: Kv7.3(KCNQ3) (Homo sapiens, UniProt O43525); assay: BL-1249 selectivity (manual patch-clamp and flux assay platforms), Kv7.3; assay type: cell-based; conditions: 10 μM
[5] = molecular target: NaV1.7 (Homo sapiens, UniProt Q15858); assay: BL-1249 selectivity (manual patch-clamp and flux assay platforms), NaV1.7; assay type: cell-based; conditions: 10 μM
[6] = tested on: Na current in DRG neurons; assay: Voltage-clamp recordings from DRG neurons, Na current; assay type: cell-based, rat
Experimental: Acutely dissociated rat DRG cells were obtained according to a previously described protocol (Passmore, 2005). All animal care and experimental procedures complied with guidelines and were approved by the Pfizer Neusentis Institutional Animal Use and Care Committee. Animal studies are reported in compliance with the ARRIVE guidelines (Kilkenny et al., 2010; McGrath and Lilley, 2015).Cells were plated on coated coverslips (poly‐D‐lysine/laminin, BD Biosciences, San Jose, CA, USA) prior to patching on the same day. Cells were perfused with an extracellular solution containing (in mM): 135 NaCl, 4.7 KCl, 1 CaCl2, 1 MgCl2, 10 HEPES and 10 glucose, pH 7.4, with NaOH (310 mOsmol·L^−1). Pipette solution contained (in mM): 130 KCl, 1 MgCl2, 5 MgATP, 10 HEPES and 5 EGTA, pH adjusted to 7.3 with KOH (290 mOsmol·L^−1). For whole‐cell recordings, currents were filtered at 2 kHz and sampled at 5 kHz. Series resistance was compensated for by up to 80%. For current‐clamp recordings, action potential firing and resting membrane potential (RMP) were recorded from small cells ([…]). GI‐530159 was dissolved in 0.3% DMSO as 10 mM stock and applied in the vicinity of cells using a gravity fed perfusion system (MSC‐200, Bio‐Logic SAS, Claix, France).

[7] = tested on: TREK1; parameters: method as in Cao et al., 2010; conditions: ref Cao et al., 2010; read-out: EC50 in electrophysiological experiments; cited from earlier work
[8] = molecular target: TASK3 (K2P9.1) (Homo sapiens, UniProt Q9NPC2); parameters: method as in Cao et al., 2010; conditions: ref Cao et al., 2010; cited from earlier work
[9] = molecular target: T2, hTREK1 (Homo sapiens, UniProt O95069); assay: Manual whole-cell patch clamp, HEK293 cells stably expressing TREK1; assay type: cell-based; parameters: expressed in transfected cells; conditions: 100 μM; n = 7
T2 sequence (O95069 1-426): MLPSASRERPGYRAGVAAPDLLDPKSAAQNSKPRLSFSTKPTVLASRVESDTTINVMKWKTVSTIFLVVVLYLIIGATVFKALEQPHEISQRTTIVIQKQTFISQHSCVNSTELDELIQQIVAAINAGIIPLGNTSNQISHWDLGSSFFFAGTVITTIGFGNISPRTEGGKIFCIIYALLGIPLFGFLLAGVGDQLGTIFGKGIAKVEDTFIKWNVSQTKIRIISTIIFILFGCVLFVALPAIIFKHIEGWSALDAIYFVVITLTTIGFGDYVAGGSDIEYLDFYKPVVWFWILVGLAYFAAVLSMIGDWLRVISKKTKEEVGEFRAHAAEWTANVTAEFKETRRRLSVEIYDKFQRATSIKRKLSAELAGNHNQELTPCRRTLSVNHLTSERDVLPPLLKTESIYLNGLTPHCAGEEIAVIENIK
Experimental: Electrophysiological studies were performed on CHO or HEK293 cells, stably expressing human recombinant TREK1; tsA‐201 cells transiently transfected with human recombinant K2P channels and acutely dissociated rat DRG cells, all at room temperature (22–24°C).
Studies were performed using a conventional patch clamp and Multiclamp 700B and pCLAMP software (Molecular Devices, Sunnyvale, CA, USA). For conventional manual patch clamp, glass coverslips containing HEK293 cells were perfused with an extracellular solution (ECS) containing (in mM): 135 NaCl, 4.7 KCl, 1 CaCl2, 1 MgCl2, 10 HEPES and 10 glucose, pH 7.4, with NaOH (310 mOsmol·L^−1). The patch pipette was filled with (in mM): 130 KCl, 1 MgCl2, 5 MgATP, 10 HEPES and 10 BAPTA, pH adjusted to 7.3 with KOH (290 mOsmol·L^−1).

Sequence of NaV1.7 (Q15858 whole entry): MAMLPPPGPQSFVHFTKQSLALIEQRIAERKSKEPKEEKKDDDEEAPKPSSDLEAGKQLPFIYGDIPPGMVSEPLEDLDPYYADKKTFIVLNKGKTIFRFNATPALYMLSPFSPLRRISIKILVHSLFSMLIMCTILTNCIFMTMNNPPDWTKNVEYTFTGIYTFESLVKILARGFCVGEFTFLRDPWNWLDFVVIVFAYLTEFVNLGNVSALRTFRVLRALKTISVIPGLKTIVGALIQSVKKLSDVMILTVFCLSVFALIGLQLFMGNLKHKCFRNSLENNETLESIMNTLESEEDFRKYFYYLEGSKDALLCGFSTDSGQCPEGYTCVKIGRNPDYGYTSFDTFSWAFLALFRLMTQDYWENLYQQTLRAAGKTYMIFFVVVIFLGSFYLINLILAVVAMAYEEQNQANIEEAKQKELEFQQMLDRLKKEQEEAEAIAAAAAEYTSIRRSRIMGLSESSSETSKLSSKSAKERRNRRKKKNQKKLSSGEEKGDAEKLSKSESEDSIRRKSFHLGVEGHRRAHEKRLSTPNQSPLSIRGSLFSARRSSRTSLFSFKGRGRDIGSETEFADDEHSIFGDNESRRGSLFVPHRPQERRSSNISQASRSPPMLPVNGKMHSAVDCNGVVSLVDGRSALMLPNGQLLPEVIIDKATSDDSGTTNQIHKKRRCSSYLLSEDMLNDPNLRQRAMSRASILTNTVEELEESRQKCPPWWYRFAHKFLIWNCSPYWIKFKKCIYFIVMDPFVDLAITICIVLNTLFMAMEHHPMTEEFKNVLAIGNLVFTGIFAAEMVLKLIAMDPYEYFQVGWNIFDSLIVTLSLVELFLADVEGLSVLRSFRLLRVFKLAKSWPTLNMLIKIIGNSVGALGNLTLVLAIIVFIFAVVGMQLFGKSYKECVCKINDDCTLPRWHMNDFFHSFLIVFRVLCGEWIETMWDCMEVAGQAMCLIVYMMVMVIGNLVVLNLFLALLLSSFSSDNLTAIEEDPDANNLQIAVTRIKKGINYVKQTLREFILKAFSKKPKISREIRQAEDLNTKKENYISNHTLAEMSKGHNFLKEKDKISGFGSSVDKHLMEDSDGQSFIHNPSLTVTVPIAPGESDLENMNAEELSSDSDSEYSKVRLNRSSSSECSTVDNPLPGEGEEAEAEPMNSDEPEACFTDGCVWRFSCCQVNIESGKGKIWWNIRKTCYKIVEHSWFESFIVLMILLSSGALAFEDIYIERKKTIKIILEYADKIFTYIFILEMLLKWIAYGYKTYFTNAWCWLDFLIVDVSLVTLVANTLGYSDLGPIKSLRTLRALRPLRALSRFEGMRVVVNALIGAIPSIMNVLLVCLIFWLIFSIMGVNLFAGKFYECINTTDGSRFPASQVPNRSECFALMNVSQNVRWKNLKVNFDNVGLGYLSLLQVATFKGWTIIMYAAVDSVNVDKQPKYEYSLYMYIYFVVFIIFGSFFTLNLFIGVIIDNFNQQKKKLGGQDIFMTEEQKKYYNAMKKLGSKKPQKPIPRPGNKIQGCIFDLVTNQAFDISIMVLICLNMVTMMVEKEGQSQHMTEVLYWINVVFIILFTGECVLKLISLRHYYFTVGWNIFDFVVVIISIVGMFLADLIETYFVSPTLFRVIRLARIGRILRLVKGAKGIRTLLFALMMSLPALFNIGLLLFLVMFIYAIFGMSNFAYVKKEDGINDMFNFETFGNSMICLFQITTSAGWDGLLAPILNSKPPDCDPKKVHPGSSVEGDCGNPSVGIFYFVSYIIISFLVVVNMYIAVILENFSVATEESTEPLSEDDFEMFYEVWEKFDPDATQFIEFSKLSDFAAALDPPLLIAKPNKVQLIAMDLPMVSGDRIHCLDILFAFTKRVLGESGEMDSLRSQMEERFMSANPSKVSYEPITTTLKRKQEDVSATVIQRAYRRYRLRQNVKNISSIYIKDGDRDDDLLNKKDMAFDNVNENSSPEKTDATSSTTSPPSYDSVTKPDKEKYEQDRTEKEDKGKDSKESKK
Sequence of BK (KCa1.1) (Q12791 whole entry, species assumed): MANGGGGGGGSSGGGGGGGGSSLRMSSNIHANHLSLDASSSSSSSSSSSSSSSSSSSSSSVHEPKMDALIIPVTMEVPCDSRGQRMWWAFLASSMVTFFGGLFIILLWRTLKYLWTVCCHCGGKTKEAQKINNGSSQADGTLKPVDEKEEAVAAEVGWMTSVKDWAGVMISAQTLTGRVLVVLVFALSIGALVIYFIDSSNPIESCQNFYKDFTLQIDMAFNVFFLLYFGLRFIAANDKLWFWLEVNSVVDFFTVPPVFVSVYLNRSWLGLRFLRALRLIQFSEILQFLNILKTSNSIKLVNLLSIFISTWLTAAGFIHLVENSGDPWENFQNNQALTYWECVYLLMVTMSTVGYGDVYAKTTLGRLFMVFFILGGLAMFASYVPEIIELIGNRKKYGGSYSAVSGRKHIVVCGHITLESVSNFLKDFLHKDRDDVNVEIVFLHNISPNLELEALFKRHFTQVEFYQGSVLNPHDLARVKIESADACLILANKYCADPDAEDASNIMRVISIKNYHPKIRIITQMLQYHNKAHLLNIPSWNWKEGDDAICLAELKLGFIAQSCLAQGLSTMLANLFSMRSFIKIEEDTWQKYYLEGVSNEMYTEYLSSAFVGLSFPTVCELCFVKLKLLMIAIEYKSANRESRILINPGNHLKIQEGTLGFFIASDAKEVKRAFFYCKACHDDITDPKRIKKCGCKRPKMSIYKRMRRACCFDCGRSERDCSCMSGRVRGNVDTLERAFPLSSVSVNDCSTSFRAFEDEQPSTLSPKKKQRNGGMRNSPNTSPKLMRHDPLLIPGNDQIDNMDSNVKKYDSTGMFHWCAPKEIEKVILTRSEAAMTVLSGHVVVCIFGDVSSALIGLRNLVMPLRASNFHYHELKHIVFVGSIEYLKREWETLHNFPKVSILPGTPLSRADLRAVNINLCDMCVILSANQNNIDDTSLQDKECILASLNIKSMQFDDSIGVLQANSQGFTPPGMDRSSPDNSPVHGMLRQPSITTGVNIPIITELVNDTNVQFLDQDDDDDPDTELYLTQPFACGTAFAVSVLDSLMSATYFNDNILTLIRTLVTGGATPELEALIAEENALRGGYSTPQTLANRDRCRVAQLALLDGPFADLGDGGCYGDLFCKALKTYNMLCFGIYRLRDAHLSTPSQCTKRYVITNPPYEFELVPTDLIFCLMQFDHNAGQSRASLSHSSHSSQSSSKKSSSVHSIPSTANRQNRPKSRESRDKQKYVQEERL
Sequence of TASK3 (K2P9.1) (Q9NPC2 whole entry, species assumed): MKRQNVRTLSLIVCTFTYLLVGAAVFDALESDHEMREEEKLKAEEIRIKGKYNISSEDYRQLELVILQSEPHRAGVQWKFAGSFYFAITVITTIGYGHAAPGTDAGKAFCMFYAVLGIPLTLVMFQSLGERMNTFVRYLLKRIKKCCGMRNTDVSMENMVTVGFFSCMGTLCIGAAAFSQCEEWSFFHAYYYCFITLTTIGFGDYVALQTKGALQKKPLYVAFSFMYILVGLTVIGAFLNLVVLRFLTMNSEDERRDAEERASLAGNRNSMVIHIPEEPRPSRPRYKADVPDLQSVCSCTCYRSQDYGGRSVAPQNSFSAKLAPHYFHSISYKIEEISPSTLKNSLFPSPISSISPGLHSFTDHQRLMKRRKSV

c1ccc(-c2nnn[nH]2)c(Nc2cccc3c2CCCC3)c1 [BL‐1249, (5,6,7,8‐tetrahydro‐naphthalen‐1‐yl)‐[2‐(1H‐tetrazol‐5‐yl)‐phenyl]‐amine]
effect on TRAAK channels [1]: clear enhancement | effect on BK (KCa1.1) [2]: significant inhibition | effect on Kv7.2 (KCNQ2) [3]: significant inhibition | effect on Kv7.3 (KCNQ3) [4]: significant inhibition | effect on NaV1.7 [5]: significant inhibition | block of Na current in DRG neurons [6]: clear block | EC50 [7]: ~1000 nM | effect on TASK3 (K2P9.1) channels [8]: strong activator | maximal enhanced current [9]: 7.2 ± 1.3 nA
